Test results from patent US6353020B1, “Fungicidal compositions containing N-acetonylbenzamides” (Dow AgroSciences LLC, priority 1998, dated 2002).
Where two headings read alike, the source gives them in different places.

Columns and labels:
[1] = system: Phytophthora capsici (ATCC 15399); experiment: In vitro test to control Phytophthora capsici (colony growth inhibition on potato dextrose agar); format: cell-based
[2] = system: Phytophthora capsici (ATCC 15399); experiment: as above; format: cell-based; remark: listed apart in the source
Description: (§1) Dilution series of Compounds A and B were prepared in dimethylsulfoxide (DMSO), and aliquots added to 25 ml of molten potato dextrose agar at 50° C. to give the appropriate concentrations shown in the table below. Immediately after adding the compound(s), the molten agar was poured into 9-cm diameter petri plates and allowed to harden. The final concentration of DMSO in all plates was 0.5%. Control plates contained DMSO but neither compound. Plates were inoculated in the center with 1 μl of a suspension of Phytophthora capsici (ATCC 15399, obtainable from the American Type Culture Collection, Rockville, Md., U.S.A) zoospores containing 5×10^5 zoospores per milliliter. Three replicate plates were used for each treatment. Fungal colony diameters were measured after growth for 7 days at 25° C., and two measurements were taken from each plate. Inhibition of growth was calculated by comparing growth in the treatments with compound A and/or B with growth in the controls. Degree of inhibition (observed) is expressed as a percentage in Table 1a. The predicted % inhibition in treatments containing both A and B was calculated using the Colby Formula.
as §1, with “B′” for “B”, “(Observed)” for “(observed)”, “1b.” for “1a.”, “Formula, which is known to those skilled in the art (R. S. Colby, Weeds 15, 20-22 (1967)).” for “Formula.”

[3] = Phytophthora capsici, ATCC15399, read-out: % Inhibition (Observed)

COC(=O)C(C)N(C(=O)Cc1ccccc1)c1c(C)cccc1C (stereo not shown) [Compound E, Benalaxyl, reference compound]
inhibition at 20 ppm ([1]; Phytophthora capsici, ATCC15399, Table 4, Compound E 20 ppm alone, read-out: % Inhibition (Observed)): 46.6%

COCC(=O)N(c1c(C)cccc1C)N1CCOC1=O [Compound C, Oxadixyl, reference compound]
inhibition at 6.25 ppm [1, 3]: 30.3%
inhibition at 12.5 ppm [1, 3]: 41.3%
inhibition at 25 ppm [1, 3]: 50.8%

Cc1cccc(C)c1N(C(=O)CCl)C1CCOC1=O (stereo not shown) [Compound D, Ofurace, reference compound]
inhibition at 12.5 ppm ([1]; Phytophthora capsici, ATCC15399, Table 3, Compound D 12.5 ppm alone, read-out: % Inhibition (Observed)): 52.1%
inhibition at 25 ppm ([1]; Phytophthora capsici, ATCC15399, Table 3, Compound D 25 ppm alone, read-out: % Inhibition (Observed)): 56%

CCC(C)(NC(=O)c1cc(Cl)c(C)c(Cl)c1)C(=O)CCl (stereo not shown) [Compound A, N-[3′-(1′-chloro-3′-methyl-2′-oxopentan)]-3,5-dichloro-4-methylbenzamide]
% Inhibition (Observed) ([2]; Table 1b, Compound A 0.04 ppm alone): 31.0%
% Inhibition (Observed) ([2]; Table 1b, Compound A 0.08 ppm alone): 47.2%
% Inhibition (Observed) ([2]; Table 1b, Compound A 0.16 ppm alone): 55.2%
% Inhibition (Observed) ([1]; Table 1a, Compound A 0.1 ppm alone, 7 days at 25° C.): 29.0%
% Inhibition (Observed) ([1]; Table 1b, Compound A 0.12 ppm alone): 52.3%
% Inhibition (Observed) ([1]; Table 2, Compound A 0.1 ppm alone): 30.3%
% Inhibition (Observed) ([1]; Table 2, Compound A 0.2 ppm alone): 39.3%
% Inhibition (Observed) ([1]; Table 2, Compound A 0.3 ppm alone): 51.8%
% Inhibition (Observed) ([1]; Table 3, Compound A 0.1 ppm alone): 29.0%
% Inhibition (Observed) ([1]; Table 3, Compound A 0.2 ppm alone): 38.1%
% Inhibition (Observed) ([1]; Table 3, Compound A 0.3 ppm alone): 47.4%
% Inhibition (Observed) ([1]; Table 4, Compound A 0.1 ppm alone): 34.7%
% Inhibition (Observed) ([1]; Table 4, Compound A 0.2 ppm alone): 44.5%
% Inhibition (Observed) ([1]; Table 4, Compound A 0.3 ppm alone): 49.4%

COCC(=O)N(c1c(C)cccc1C)C(C)C(=O)OC (racemic) [Compound B′, racemic mixture of Metalaxyl, reference compound]
% Inhibition (Observed) ([1]; Table 1b, Compound B′ 0.6 ppm alone, 7 days at 25° C.): 35.1%
% Inhibition (Observed) ([1]; Table 1b, Compound B′ 0.9 ppm alone, 7 days at 25° C.): 48.0%

COCC(=O)N(c1c(C)cccc1C)[C@H](C)C(=O)OC (single isomer, unassigned) [Compound B, R-Enantiomer of Metalaxyl, reference compound]
% Inhibition (Observed) ([2]; Table 1a, Compound B 0.25 ppm alone, 7 days at 25° C.): 17.9%
% Inhibition (Observed) ([2]; Table 1a, Compound B 0.75 ppm alone, 7 days at 25° C.): 57.6%
% Inhibition (Observed) ([1]; Table 1a, Compound B 0.5 ppm alone, 7 days at 25° C.): 56.0%
